The record followed here is patent publication US20260085094A1, “STAPLED PEPTIDE AND USE THEREOF” (priority 2021, published 2026).

The target of series [1] is T1, GLP-1R (Homo sapiens, UniProt P43220).
T1 construct: host or cells: HEK293
As to the kind of experiment: In vitro GLP-1R agonistic activity test (cAMP assay). The series is classed as cell-based. To be noted: GLP-1R HEK293 cell line. On the procedure: (§1) [table] The compounds to be tested were diluted 4-fold at 10 wells, starting from an initial concentration of 30 μM. […] The TopSeal-A film was removed, and readout was performed on EnVision.

The target in series [2] is T2, GIPR (Homo sapiens, UniProt P48546).
T2 construct: host or cells: CHO
T2 sequence (P48546 22-466): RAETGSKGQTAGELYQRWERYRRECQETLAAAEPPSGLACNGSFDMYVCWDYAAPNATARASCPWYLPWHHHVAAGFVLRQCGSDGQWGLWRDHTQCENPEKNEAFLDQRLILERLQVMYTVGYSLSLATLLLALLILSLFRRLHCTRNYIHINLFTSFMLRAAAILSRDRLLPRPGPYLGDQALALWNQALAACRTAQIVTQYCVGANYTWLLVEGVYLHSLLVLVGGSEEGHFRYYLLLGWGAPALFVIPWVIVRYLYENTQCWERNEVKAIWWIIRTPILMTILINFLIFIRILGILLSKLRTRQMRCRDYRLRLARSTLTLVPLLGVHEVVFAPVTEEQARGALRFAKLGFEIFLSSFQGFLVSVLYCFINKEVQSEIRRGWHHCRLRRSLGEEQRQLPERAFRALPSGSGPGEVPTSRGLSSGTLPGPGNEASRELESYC
As to the kind of experiment: In vitro GIPR agonistic activity test (cAMP assay). To be noted: GIPR CHO cell line, read-out: GIP-1 EC50. In kind it is cell-based. The procedure: as §1

For series [3], the target named is T3, GCGR (Homo sapiens, UniProt P47871).
T3 construct: host or cells: HEK293
As to the kind of experiment: In vitro GCGR agonistic activity test (cAMP assay). In kind it is cell-based. To be noted: GCGR HEK293 cell line, read-out: GCG EC50. The procedure: as §1

A short description of series [4]: in vivo. Also noted: species or system SD rats. To be noted: rat, sc, 0.048 mg/kg. On the procedure:
(§2) To test the in vivo pharmacokinetics of the polypeptides of the present disclosure in SD rats. The pharmacokinetic characteristics of the polypeptides of the present disclosure after subcutaneous injection in rodents were tested according to SOP. In the experiment, the polypeptide was prepared into a clear solution, which was administered to rats by single subcutaneous injection (SC, 0.048 mpk). The vehicle for injection was citrate buffer (20 mM, pH=7). The whole blood was collected and prepared to obtain the plasma. The drug concentration was analyzed by LC-MS/MS method, and the pharmacokinetic parameters were calculated using Phoenix WinNonlin software.

Series [5] in a line: in vivo. To be noted: sc, 0.048 mg/kg. More on the design: species or system C57BL/6 mice. The procedure:
as §2, with “C57BL/6 mice.” for “SD rats.”, “after intravenous injection and” for “after”, “mice” for “rats”, “for subcutaneous” for “for”

The nature of series [6]: in vivo. More on the design: species or system cynomolgus macaques. To be noted: cynomolgus monkey, sc, 0.02 mg/kg. On the procedure: as §2, with “cynomolgus macaques.” for “SD rats.”, “after intravenous injection and” for “after”, “mammals” for “rodents”, “cynomolgus macaques” for “rats”, “0.02” for “0.048”, “for subcutaneous” for “for”

T3 sequence (P47871 26-477, species assumed): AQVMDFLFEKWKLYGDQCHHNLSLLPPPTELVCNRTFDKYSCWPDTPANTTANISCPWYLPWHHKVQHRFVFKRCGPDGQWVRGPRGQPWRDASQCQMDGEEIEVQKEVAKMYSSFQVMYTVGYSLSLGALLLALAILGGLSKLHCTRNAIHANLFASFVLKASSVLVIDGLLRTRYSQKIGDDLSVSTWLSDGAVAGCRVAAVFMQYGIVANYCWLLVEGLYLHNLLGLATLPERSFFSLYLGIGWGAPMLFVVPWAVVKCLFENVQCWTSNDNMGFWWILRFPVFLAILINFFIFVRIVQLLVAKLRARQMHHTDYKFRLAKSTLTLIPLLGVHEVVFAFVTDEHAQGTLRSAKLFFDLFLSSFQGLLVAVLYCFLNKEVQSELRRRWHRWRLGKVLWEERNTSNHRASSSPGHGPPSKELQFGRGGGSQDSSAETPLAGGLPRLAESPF
T1 sequence (P43220 24-463, species assumed): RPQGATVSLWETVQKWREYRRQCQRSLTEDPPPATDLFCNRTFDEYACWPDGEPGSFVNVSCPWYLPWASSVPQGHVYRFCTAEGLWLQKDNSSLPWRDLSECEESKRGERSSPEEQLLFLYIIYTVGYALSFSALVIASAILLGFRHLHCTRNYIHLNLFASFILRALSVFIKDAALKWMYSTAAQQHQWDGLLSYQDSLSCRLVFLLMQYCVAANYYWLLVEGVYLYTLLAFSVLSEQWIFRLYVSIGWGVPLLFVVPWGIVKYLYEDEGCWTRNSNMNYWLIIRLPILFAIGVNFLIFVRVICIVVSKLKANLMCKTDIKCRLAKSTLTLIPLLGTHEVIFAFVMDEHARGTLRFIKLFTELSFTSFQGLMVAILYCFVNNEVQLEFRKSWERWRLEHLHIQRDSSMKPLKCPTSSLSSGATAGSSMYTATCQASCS

Take `CC[C@H](C)[C@H](NC(=O)[C@H](Cc1ccccc1)NC(=O)[C@H](C)NC(=O)[C@@H]1CCCCNC(=O)CN(C(=O)COCCOCCNC(=O)COCCOCCNC(=O)CC[C@H](NC(=O)CCCCCCCCCCCCCCCCCCC(=O)O)C(=O)O)CC(=O)NCCCC[C@H](NC(=O)[C@H](CCCCN)NC(=O)[C@H](CC(=O)O)NC(=O)[C@H](CC(C)C)NC(=O)[C@](C)(CC(C)C)NC(=O)[C@@H](NC(=O)[C@H](CO)NC(=O)[C@H](Cc2ccc(O)cc2)NC(=O)[C@H](CC(=O)O)NC(=O)[C@H](CO)NC(=O)[C@@H](NC(=O)[C@H](Cc2ccccc2)NC(=O)[C@@H](NC(=O)CNC(=O)[C@H](CCC(N)=O)NC(=O)C(C)(C)NC(=O)[C@@H](N)Cc2ccc(O)cc2)[C@@H](C)O)[C@@H](C)O)[C@@H](C)CC)C(=O)N[C@@H](C)C(=O)N[C@@H](CCC(N)=O)C(=O)N1)C(=O)N[C@@H](CCC(=O)O)C(=O)N[C@@H](Cc1ccc(O)cc1)C(=O)N[C@@H](CC(C)C)C(=O)N[C@@H](CC(C)C)C(=O)N[C@@H](CCC(=O)O)C(=O)NCC(=O)NCC(=O)N1CCC[C@H]1C(=O)N[C@@H](CO)C(=O)N[C@@H](CO)C(=O)NCC(=O)N[C@@H](C)C(=O)N1CCC[C@H]1C(=O)N1CCC[C@H]1C(=O)N1CCC[C@H]1C(=O)N[C@@H](CO)C(N)=O` [WX001]: the EC50 in series [1] stood at 0.072 nM; in series [2] it was 0.13 nM; in series [3] it was 0.55 nM. Also, the area under the curve AUC(0-t) in series [4] (SD) came to 0.718 µM·h; in series [5] (C57BL/6, mouse) it was 1.83 µM·h; in series [6], 5.29 µM·h. Also, the peak concentration (Cmax) in series [4] (SD) is 17 nM; in series [5] (C57BL/6, mouse), 58 nM; in series [6], 49 nM. In addition, the Tmax in series [4] (SD) was 24 h; in series [5] (C57BL/6, mouse), 12 h; in series [6] it was 32 h. Besides, the half-life was 25 h in series [4] (SD); 16 h in series [5] (C57BL/6, mouse); 61 h in series [6].

For the molecule `CC[C@H](C)[C@H](NC(=O)[C@H](Cc1ccccc1)NC(=O)[C@H](C)NC(=O)C(C)(C)NC(=O)[C@@H]1CCCCNC(=O)CN(C(=O)COCCOCCNC(=O)COCCOCCNC(=O)CC[C@H](NC(=O)CCCCCCCCCCCCCCCCCCC(=O)O)C(=O)O)CC(=O)NCCCC[C@H](NC(=O)[C@H](CC(=O)O)NC(=O)[C@H](CC(C)C)NC(=O)[C@](C)(CC(C)C)NC(=O)[C@@H](NC(=O)[C@H](CO)NC(=O)[C@H](Cc2ccc(O)cc2)NC(=O)[C@H](CC(=O)O)NC(=O)[C@H](CO)NC(=O)[C@@H](NC(=O)[C@H](Cc2ccccc2)NC(=O)[C@@H](NC(=O)CNC(=O)[C@H](CCC(N)=O)NC(=O)C(C)(C)NC(=O)[C@@H](N)Cc2ccc(O)cc2)[C@@H](C)O)[C@@H](C)O)[C@@H](C)CC)C(=O)N[C@@H](CCCCN)C(=O)N[C@@H](C)C(=O)N1)C(=O)N[C@@H](CCC(=O)O)C(=O)N[C@@H](Cc1ccc(O)cc1)C(=O)N[C@@H](CC(C)C)C(=O)N[C@@H](CC(C)C)C(=O)N[C@@H](CCC(=O)O)C(=O)NCC(=O)NCC(=O)N1CCC[C@H]1C(=O)N[C@@H](CO)C(=O)N[C@@H](CO)C(=O)NCC(=O)N[C@@H](C)C(=O)N1CCC[C@H]1C(=O)N1CCC[C@H]1C(=O)N1CCC[C@H]1C(=O)N[C@@H](CO)C(N)=O` [WX002], the maximum concentration (Cmax) in series [4] (SD) worked out at 30 nM; in series [5] (C57BL/6, mouse), 69 nM; in series [6], 54 nM. Further, the AUC(0-t) in series [4] is 1.06 µM·h; in series [5] (mouse), 2.01 µM·h; in series [6], 5.1 µM·h. Besides, the figures for the Tmax in series [4], in series [5] (mouse) and in series [6] were 20 h, 8 h and 24 h, respectively. The results for the half-life in series [4], in series [5] (mouse) and in series [6] were 14 h, 10 h and 52 h, respectively.

Consider `CC[C@H](C)[C@H](NC(=O)[C@H](Cc1ccccc1)NC(=O)[C@H](C)NC(=O)C(C)(C)NC(=O)[C@H](CCC(N)=O)NC(=O)[C@H](C)NC(=O)[C@H](CCCCN)NC(=O)[C@H](CCCCN)NC(=O)[C@H](CC(=O)O)NC(=O)[C@H](CC(C)C)NC(=O)[C@](C)(CC(C)C)NC(=O)[C@@H](NC(=O)[C@H](CO)NC(=O)[C@H](Cc1ccc(O)cc1)NC(=O)[C@H](CC(=O)O)NC(=O)[C@H](CO)NC(=O)[C@@H](NC(=O)[C@H](Cc1ccccc1)NC(=O)[C@@H](NC(=O)CNC(=O)[C@H](CCC(N)=O)NC(=O)C(C)(C)NC(=O)[C@@H](N)Cc1ccc(O)cc1)[C@@H](C)O)[C@@H](C)O)[C@@H](C)CC)C(=O)N[C@@H](CCC(=O)O)C(=O)N[C@H]1CCCCNC(=O)CN(C(=O)COCCOCCNC(=O)COCCOCCNC(=O)CC[C@H](NC(=O)CCCCCCCCCCCCCCCCCCC(=O)O)C(=O)O)CC(=O)NCCCC[C@@H](C(=O)NCC(=O)NCC(=O)N2CCC[C@H]2C(=O)N[C@@H](CO)C(=O)N[C@@H](CO)C(=O)NCC(=O)N[C@@H](C)C(=O)N2CCC[C@H]2C(=O)N2CCC[C@H]2C(=O)N2CCC[C@H]2C(=O)N[C@@H](CO)C(N)=O)NC(=O)[C@H](CC(C)C)NC(=O)[C@H](CC(C)C)NC1=O` [WX005], for which the half-maximal effective concentration (EC50) in series [1] is 0.063 nM; in series [2], 0.14 nM; in series [3], 1.4 nM. The AUC(0-t) in series [4] (SD) came to 1.21 µM·h; in series [5] (C57BL/6, mouse), 2.13 µM·h; in series [6], 5.81 µM·h. The peak concentration (Cmax) in series [4] (SD) amounted to 26 nM; in series [5] (C57BL/6, mouse), 72 nM; in series [6], 43 nM. In addition, the time of peak concentration (Tmax) came out at 28 h in series [4] (SD); 12 h in series [5] (C57BL/6, mouse); 48 h in series [6]. Further, the half-life was 23 h in series [4] (SD); 15 h in series [5] (C57BL/6, mouse); 100 h in series [6].
